The values that follow come from patent US11186534B2, “Derivatives of sulindac can protect normal cells against oxidative damage” (University of South Alabama, priority 2017, dated 2021).

Data set [1] concerns Retinal pigmented epithelium cells (ARPE-19). The data set is described as follows: Cell viability assay: protection of RPE cells against oxidative damage from TBHP. As to Cyto-protective activity*: key: active = more active than Sulindac; inactive = less active than Sulindac. It is filed as cell-based. Conditions: for Cyto-protective activity*: RPE cells, TBHP as oxidizing agent, relative to Sulindac. The procedure:
Cultured cells and reagents: Retinal pigmented epithelium cells (ARPE-19) were obtained from American Type Culture Collection (ATCC, Manassas, Va.) and cultured at 37° C. in 5% CO2. All chemicals were purchased from Sigma unless specified.
Cell viability assay: Cells were cultured and assayed for cell viability essentially as described previously (14). ARPE-19 cells were plated at 10,000 cells per well in a 96-well plate. The cells were grown for 18-20 hours, the medium discarded in aseptic conditions and replaced with fresh culture medium containing the indicated drug concentration. The plates were incubated for 24 hours at 37° C. in a 5% CO2 incubator in the presence of sulindac or Compound 9. To examine the treatment effects on oxidative damage to RPE cells, cells were washed and incubated in media without serum with various concentrations of tert-butyl hydroperoxide (TBHP) for an additional 24h. The culture medium was then discarded and the cells were thoroughly rinsed in PBS. Cell viability was determined by using the Cell Titer 96 Aqueous One Cell Proliferation Assay (Promega) according to the manufacturer's instructions. The assay utilizes a tetrazolium compound that is converted into a water-soluble formazan by the action of cellular NADH oxidase activity in metabolically active cells. The formazan was quantified by measuring the absorbance at 490 nm using a colorimetric microtiter plate reader (SpectraMax Plus; Molecular Devices).
In the present studies, a series of compounds were identified as having the ability to protect RPE cells against oxidative damage using tert-butyl hydroperoxide (TBHP), an organic peroxide, as an oxidizing agent (10).

The next data set concerns COX. The note with it: background; cited from earlier work.
The test system of data set [2] is cells. The note with it: background; cited from earlier work.
The subject of data set [3] is cells. Conditions: background; cited from earlier work. This is another data set of the same source.
Data set [4] concerns rat intact hearts (Langendorff model). The data set is described as follows: Langendorff model of ischemia/reperfusion injury, LDH release. In kind it is in vivo, Sprague Dawley rats. The note with it: 0.7 mg/kg i.p. daily for 48 h; FIG. 9. The procedure:
The ex vivo Langendorff procedure is a well-established preparation used to investigate heart physiology, ischemia/reperfusion injury, and other cardiovascular insults (23, 24; also see, e.g., reference 22). Sprague Dawley rats (275-325g) were administered either no drug or Compound 9 daily (at 0.7 mg/kg) for a total of two days (two administrations in total). Forty-eight hours after the start of drug exposure, hearts were removed and exposed to 45 min no flow ischemia and 2 h reperfusion in the Langendorff model (hearts were first equilibrated in KHB buffer for 10 min and then subjected to 45 min ischemia followed by 2 h reperfusion with KHB buffer), in the absence of drug.
In LDH and TTC assays for the Langendorff Preparation, coronary effluent samples (500 μL) from the Langendorff preparation were obtained upon attachment of excised heart, every 15 min before ischemia, immediately after 45 min ischemia, and at 15 min intervals during reperfusion. LDH was measured (using a Cytotox-96 nonradioactive cytotoxicity assay kit (Promega), with the absorbance read at 490 nm). Immediately upon completion, the heart was sliced into 2-mm cross-sectional pieces and slices were incubated for 30 min with 1% 2,3,5-triphenyl tetrazolium chloride (TTC) stain in Krebs-Henseleit buffer (KHB) (pH=7.4) at 37° C. to distinguish between viable (red) and nonviable (white) tissue. Tissue slices were stored overnight in 10% formaldehyde before measurement of infarct size using NIH-Image J software.
The protective (preconditioning) effect of Compound 9 was evaluated in an art-recognized Langendorff model of ischemia/reperfusion injury. Compound 9 was administered via i.p. injection to test animals daily for two days, and animal hearts were then removed for performance of the Langendorff procedure (described above and known in the art).

On to `COc1cc(/C=C2/C(C)=C(CC(=O)NCc3ccco3)c3cc(OC)c(OC)cc32)cc(OC)c1` [Compound 21, (Z)-2-(1-(3,5-dimethoxybenzylidene)-5,6-dimethoxy-2-methyl-1H-inden-3-yl)-N-(furan-2-ylmethyl)acetamide], for which the “Cyto-protective activity*” value in data set [1] is “inactive”.

Consider `COc1ccc2c(c1)C(CC(=O)O)=C(C)/C2=C/c1cc(OC)c(OC)c(OC)c1` [Compound 11, (Z)-2-(5-methoxy-2-methyl-1-(3,4,5-trimethoxybenzylidene)-1H-inden-3-yl)acetic acid], for which, in data set [1], the “Cyto-protective activity*” value is “inactive”.

In the case of `COc1ccc2c(c1)C(CC(=O)O)=C(C)/C2=C/c1cc(OC)c(O)c(OC)c1` [Compound 23, (Z)-2-(1-(4-hydroxy-3,5-dimethoxybenzylidene)-5-methoxy-2-methyl-1H-inden-3-yl)acetic acid], the “Cyto-protective activity*” value in data set [1] is “inactive”.

As to `COc1cc(/C=C2/C(C)=C(CC(=O)O)c3cc(C)ccc32)cc(OC)c1OC` [Compound 8, (Z)-2-(2,5-dimethyl-1-(3,4,5-trimethoxybenzylidene)-1H-inden-3-yl)acetic acid], in data set [1], the “Cyto-protective activity*” value is “inactive”.

`CC1=C(CC(=O)[O-])c2cc(F)ccc2/C1=C\c1ccc(N(C)C)cc1.[Na+]` [Compound 2, sodium (Z)-2-(1-(4-(dimethylamino)benzylidene)-5-fluoro-2-methyl-1H-inden-3-yl)acetate]: the “Cyto-protective activity*” value in data set [1] was “inactive”.

With `COc1ccc2c(c1)C(CC(=O)O)=C(C)/C2=C/c1ccc(OCc2ccccc2)cc1` [Compound 10, (Z)-2-(1-(4-(benzyloxy)benzylidene)-5-methoxy-2-methyl-1H-inden-3-yl)acetic acid], the “Cyto-protective activity*” value in data set [1] is recorded as “active”. The “Effectiveness in protecting RPE cells from TBHP compared with sulindac” value in data set [1] (compound at 25 μM vs sulindac 200 μM, FIG. 2) is on record as “equally effective as sulindac”. Also, the “Fold lower effective concentration relative to sulindac (RPE cell protection)” value in data set [1] (sulindac 200 μM, Compound 10 at 25 μM, Compound 9 at 10 μM) is given as 8 ×.

`COc1cc2c(cc1OC)/C(=C\c1ccc3c(c1)OCO3)C(C)=C2CC(=O)O` [Compound 14, (Z)-2-(1-(benzo[d][1,3]dioxol-5-ylmethylene)-5,6-dimethoxy-2-methyl-1H-inden-3-yl)acetic acid]: in data set [1], the “Cyto-protective activity*” value was “inactive”.

Regarding `COc1cc2c(cc1OC)/C(=C\c1cc(OC)c(O)c(OC)c1)C(C)=C2CC(=O)NCc1ccco1` [Compound 18, (Z)-N-(furan-2-ylmethyl)-2-(1-(4-hydroxy-3,5-dimethoxybenzylidene)-5,6-dimethoxy-2-methyl-1H-inden-3-yl)acetamide], the “Cyto-protective activity*” value in data set [1] was “inactive”.

For `COc1ccc2c(c1)C(CC(=O)O)=C(C)/C2=C/c1ccc(SC(F)(F)F)cc1` [Compound 4, (Z)-2-(5-methoxy-2-methyl-1-(4-((trifluoromethyl)thio)benzylidene)-1H-inden-3-yl)acetic acid], in data set [1], the “Cyto-protective activity*” value was “inactive”.

As to `COc1cc2c(cc1OC)/C(=C\c1cc(OC)c(OC)c(OC)c1)C(C)=C2CC(=O)NCc1ccco1` [Compound 20, (Z)-2-(5,6-dimethoxy-2-methyl-1-(3,4,5-trimethoxybenzylidene)-1H-inden-3-yl)-N-(furan-2-ylmethyl)acetamide], the “Cyto-protective activity*” value in data set [1] is “inactive”.

As for `COc1ccc2c(c1)C(CC(=O)O)=C(C)/C2=C/c1ccc(N(C)C)cc1` [Compound 6, (Z)-2-(1-(4-(dimethylamino)benzylidene)-5-methoxy-2-methyl-1H-inden-3-yl)acetic acid], the “Cyto-protective activity*” value in data set [1] is “inactive”.

`COc1ccc2c(c1)/C(=C\c1cc(OC)c(OC)c(OC)c1)C(C)=C2CC(=O)O` [Compound 3, (Z)-2-(6-methoxy-2-methyl-1-(3,4,5-trimethoxybenzylidene)-1H-inden-3-yl)acetic acid]: the “Cyto-protective activity*” value in data set [1] is “inactive”.

`COc1cc(/C=C2/C(C)=C(CC(=O)O)c3cc(OC)c(OC)cc32)cc(OC)c1` [Compound 17, (Z)-2-(1-(3,5-dimethoxybenzylidene)-5,6-dimethoxy-2-methyl-1H-inden-3-yl)acetic acid]: in data set [1], the “Cyto-protective activity*” value was “inactive”.

For the compound `COc1ccc2c(c1)C(CC(=O)O)=C(C)/C2=C/c1ccc(OC)c(O)c1` [Compound 15, (Z)-2-(1-(3-hydroxy-4-methoxybenzylidene)-5-methoxy-2-methyl-1H-inden-3-yl)acetic acid], the “Cyto-protective activity*” value in data set [1] is “inactive”.

On to `COc1ccc2c(c1)C(CC(=O)O)=C(C)/C2=C/c1ccc(O)c(OC)c1` [Compound 13, (Z)-2-(1-(4-hydroxy-3-methoxybenzylidene)-5-methoxy-2-methyl-1H-inden-3-yl)acetic acid], for which the “Cyto-protective activity*” value in data set [1] is “inactive”.

Take `COc1cc2c(cc1OC)/C(=C\c1ccc(N(C)C)cc1)C(C)=C2CC(=O)NCc1ccco1` [Compound 22, (Z)-2-(1-(4-(dimethylamino)benzylidene)-5,6-dimethoxy-2-methyl-1H-inden-3-yl)-N-(furan-2-ylmethyl)acetamide]: in data set [1], the “Cyto-protective activity*” value was “inactive”.

For the compound `COc1cc(/C=C2/C(C)=C(CC(=O)O)c3cc(OC)ccc32)cc(OC)c1` [Compound 7, (Z)-2-(1-(3,5-dimethoxybenzylidene)-5-methoxy-2-methyl-1H-inden-3-yl)acetic acid], the “Cyto-protective activity*” value in data set [1] was “inactive”.

On to `CC1=C(CC(=O)O)c2cc(F)ccc2/C1=C\c1ccc(S(C)(=O)=O)cc1` [Sulindac sulfone], for which the COX inhibitory activity result in the data set on COX is reported as “no COX inhibitory activity”. The “Activity in protecting cells against oxidative damage relative to sulindac” value in the data set with cells [2] was “more active than sulindac”. In addition, in the data set with cells [3], the “Toxicity to cells relative to sulindac” value is reported as “significantly more toxic”.

For the compound `COc1ccc2c(c1)C(CC(=O)O)=C(C)/C2=C/c1cc(Br)c(O)c(OC)c1` [Compound 16, (Z)-2-(1-(3-bromo-4-hydroxy-5-methoxybenzylidene)-5-methoxy-2-methyl-1H-inden-3-yl)acetic acid], in data set [1], the “Cyto-protective activity*” value was “inactive”.

For `COc1cc(/C=C2/C(C)=C(CC(=O)O)c3cc(F)ccc32)cc(OC)c1OC` [Compound 12, (Z)-2-(5-fluoro-2-methyl-1-(3,4,5-trimethoxybenzylidene)-1H-inden-3-yl)acetic acid], the “Cyto-protective activity*” value in data set [1] was “inactive”.

Turning to `CC1=C(CC(=O)O)c2cc(F)ccc2/C1=C\c1ccc([S+](C)[O-])cc1` (centres unmarked) [sulindac], the “TBHP concentration above which no longer protective for RPE cells” value in data set [1] (sulindac at 200 μM, FIG. 2) is “above 300 μM”. Besides, in data set [4], the “Protective effect during the 45 min ischemia phase” value is reported as “no protective effect” and the “Protective effect during the 2 h reperfusion phase” value is “not as robust”.

For `COc1ccc2c(c1)C(Cc1nc3cnccc3[nH]1)=C(C)/C2=C/c1cc(OC)c(OC)c(OC)c1` [Compound 19, (Z)-2-((5-methoxy-2-methyl-1-(3,4,5-trimethoxybenzylidene)-1H-inden-3-yl)methyl)-1H-imidazo[4,5-c]pyridine], the “Cyto-protective activity*” value in data set [1] was “inactive”.

In the case of `COc1ccc2c(c1)C(CC(=O)O)=C(C)/C2=C/c1cc(OC)c(Br)c(OC)c1` [Compound 5, (Z)-2-(1-(4-bromo-3,5-dimethoxybenzylidene)-5-methoxy-2-methyl-1H-inden-3-yl)acetic acid], the “Cyto-protective activity*” value in data set [1] is “inactive”.
